Measurements from US8956999B2, “Herbicides” (Syngenta Limited, priority 2007, dated 2015).

Experiments:
Format in all cases: in vivo
[1] = test system: Alopecurus myosuroides (ALOMY); experiment: Example B pre-emergence herbicidal test, glasshouse; conditions: 312 h, rate 250 g/ha, evaluated after 13 days, 100=total damage to plant, 0=no damage to plant
Method: (§1) Seeds of a variety of test species were sown in standard soil in pots. After cultivation for one day (pre-emergence) or after 8 days cultivation (post-emergence) under controlled conditions in a glasshouse (at 24/16° C., day/night; 14 hours light; 65% humidity), the plants were sprayed with an aqueous spray solution derived from the formulation of the technical active ingredient in acetone/water (50:50) solution containing 0.5% Tween 20 (polyoxyethelyene sorbitan monolaurate, CAS RN 9005-64-5). The test plants were then grown in a glasshouse under controlled conditions in a glasshouse (at 24/16° C., day/night; 14 hours light; 65% humidity) and watered twice daily. After 13 days for pre and post-emergence, the test was evaluated (100=total damage to plant; 0=no damage to plant). Test Plants: Alopecurus myosuroides (ALOMY), Avena fatua (AVEFA), Setaria faberi (SETFA), Echinochloa crus-galli (ECHCG), Solanum nigrum (SOLNI) and Amaranthus retoflexus (AMARE)

[2] = test system: Amaranthus retoflexus (AMARE); experiment: as above; conditions: Amaranthus retroflexus, 312 h, rate 250 g/ha, evaluated after 13 days, 100=total damage to plant, 0=no damage to plant
Method: as §1

[3] = test system: Avena fatua (AVEFA); experiment: as above; conditions: 312 h, rate 250 g/ha, evaluated after 13 days, 100=total damage to plant, 0=no damage to plant
Method: as §1

[4] = test system: Echinochloa crus-galli (ECHCG); experiment: as above; conditions: Echinochloa crus-galli, 312 h, rate 250 g/ha, evaluated after 13 days, 100=total damage to plant, 0=no damage to plant, read-out: Pre-Emergence Activity ECHGG
Method: as §1

[5] = test system: Setaria faberi (SETFA); experiment: as above; conditions: Setaria faberi, 312 h, rate 250 g/ha, evaluated after 13 days, 100=total damage to plant, 0=no damage to plant, read-out: Pre-Emergence Activity SEFTA
Method: as §1

[6] = test system: Alopecurus myosuroides (ALOMY); experiment: Example B post-emergence herbicidal test, glasshouse; conditions: 312 h, rate 250 g/ha, evaluated after 13 days, read-out: Post-Emergence Activity ALOMY (100=total damage to plant; 0=no damage to plant)
Method: as §1

[7] = test system: Amaranthus retoflexus (AMARE); experiment: as above; conditions: Amaranthus retroflexus, 312 h, rate 250 g/ha, evaluated after 13 days, read-out: Post-Emergence Activity AMARE (100=total damage to plant; 0=no damage to plant)
Method: as §1

[8] = test system: Avena fatua (AVEFA); experiment: as above; conditions: 312 h, rate 250 g/ha, evaluated after 13 days, read-out: Post-Emergence Activity AVEFA (100=total damage to plant; 0=no damage to plant)
Method: as §1

[9] = test system: Echinochloa crus-galli (ECHCG); experiment: as above; conditions: 312 h, rate 250 g/ha, evaluated after 13 days, read-out: Post-Emergence Activity ECHGG (100=total damage to plant; 0=no damage to plant)
Method: as §1

[10] = test system: Setaria faberi (SETFA); experiment: as above; conditions: 312 h, rate 250 g/ha, evaluated after 13 days, read-out: Post-Emergence Activity SEFTA (100=total damage to plant; 0=no damage to plant)
Method: as §1

## CCc1sc(-c2ccc(Br)cc2)nc1C1C(=O)C(C)(C)OC(C)(C)C1=O [Compound T49]
[1]
  pest or weed control at 250 g/ha: 60%
[2]
  pest or weed control at 250 g/ha: 0%
[3]
  pest or weed control at 250 g/ha: 20%
[4]
  pest or weed control at 250 g/ha: 60%
[5]
  pest or weed control at 250 g/ha: 80%
[6]
  pest or weed control at 250 g/ha: 100%
[7]
  pest or weed control at 250 g/ha: 20%
[8]
  pest or weed control at 250 g/ha: 100%
[9]
  pest or weed control at 250 g/ha: 100%
[10]
  pest or weed control at 250 g/ha: 100%

## Cc1sc(-c2ccc(OC(F)F)cc2Cl)nc1C1C(=O)C(C)(C)OC(C)(C)C1=O [Compound T70]
[1]
  pest or weed control at 250 g/ha: 30%
[2]
  pest or weed control at 250 g/ha: 0%
[3]
  pest or weed control at 250 g/ha: 0%
[4]
  pest or weed control at 250 g/ha: 70%
[5]
  pest or weed control at 250 g/ha: 70%
[6]
  pest or weed control at 250 g/ha: 70%
[7]
  pest or weed control at 250 g/ha: 0%
[8]
  pest or weed control at 250 g/ha: 10%
[9]
  pest or weed control at 250 g/ha: 90%
[10]
  pest or weed control at 250 g/ha: 90%

## Cc1sc(-c2ccc(Br)cn2)nc1C1=C(OC(=O)C2CC2)C(C)(C)OC(C)(C)C1=O [Compound P4]
[1]
  pest or weed control at 250 g/ha: 0%
[2]
  pest or weed control at 250 g/ha: 0%
[3]
  pest or weed control at 250 g/ha: 0%
[4]
  pest or weed control at 250 g/ha: 10%
[5]
  pest or weed control at 250 g/ha: 20%
[6]
  pest or weed control at 250 g/ha: 40%
[7]
  pest or weed control at 250 g/ha: 0%
[8]
  pest or weed control at 250 g/ha: 0%
[9]
  pest or weed control at 250 g/ha: 90%
[10]
  pest or weed control at 250 g/ha: 90%

## Cc1sc(-c2ccc(OC(F)F)cc2)nc1C1C(=O)C(C)(C)OC(C)(C)C1=O [Compound T60]
[1]
  pest or weed control at 250 g/ha: 40%
[2]
  pest or weed control at 250 g/ha: 0%
[3]
  pest or weed control at 250 g/ha: 0%
[4]
  pest or weed control at 250 g/ha: 20%
[5]
  pest or weed control at 250 g/ha: 70%
[6]
  pest or weed control at 250 g/ha: 50%
[7]
  pest or weed control at 250 g/ha: 0%
[8]
  pest or weed control at 250 g/ha: 40%
[9]
  pest or weed control at 250 g/ha: 90%
[10]
  pest or weed control at 250 g/ha: 90%

## Cc1sc(-c2ccc(Cl)cc2F)nc1C1C(=O)C(C)(C)C(=O)C(C)(C)C1=O [Compound T9]
[1]
  pest or weed control at 250 g/ha: 0%
[2]
  pest or weed control at 250 g/ha: 0%
[3]
  pest or weed control at 250 g/ha: 0%
[4]
  pest or weed control at 250 g/ha: 20%
[5]
  pest or weed control at 250 g/ha: 40%
[6]
  pest or weed control at 250 g/ha: 90%
[7]
  pest or weed control at 250 g/ha: 0%
[8]
  pest or weed control at 250 g/ha: 40%
[9]
  pest or weed control at 250 g/ha: 90%
[10]
  pest or weed control at 250 g/ha: 80%

## CCc1sc(-c2ccc(Br)cc2F)nc1C1C(=O)C(C)(C)OC(C)(C)C1=O [Compound T54]
[1]
  pest or weed control at 250 g/ha: 100%
[2]
  pest or weed control at 250 g/ha: 20%
[3]
  pest or weed control at 250 g/ha: 90%
[4]
  pest or weed control at 250 g/ha: 100%
[5]
  pest or weed control at 250 g/ha: 100%
[6]
  pest or weed control at 250 g/ha: 100%
[7]
  pest or weed control at 250 g/ha: 0%
[8]
  pest or weed control at 250 g/ha: 100%
[9]
  pest or weed control at 250 g/ha: 100%
[10]
  pest or weed control at 250 g/ha: 100%

## CC(=O)OC1=C(c2sc(-c3ccc(Cl)cc3)nc2C)C(=O)C(C)(C)OC1(C)C [Compound P9]
[1]
  pest or weed control at 250 g/ha: 20%
[2]
  pest or weed control at 250 g/ha: 0%
[3]
  pest or weed control at 250 g/ha: 0%
[4]
  pest or weed control at 250 g/ha: 50%
[5]
  pest or weed control at 250 g/ha: 40%
[6]
  pest or weed control at 250 g/ha: 90%
[7]
  pest or weed control at 250 g/ha: 30%
[8]
  pest or weed control at 250 g/ha: 80%
[9]
  pest or weed control at 250 g/ha: 100%
[10]
  pest or weed control at 250 g/ha: 80%

## Cc1sc(-c2ccc(Cl)s2)nc1C1C(=O)C(C)(C)OC(C)(C)C1=O [Compound T55]
[1]
  pest or weed control at 250 g/ha: 0%
[2]
  pest or weed control at 250 g/ha: 0%
[3]
  pest or weed control at 250 g/ha: 0%
[4]
  pest or weed control at 250 g/ha: 20%
[5]
  pest or weed control at 250 g/ha: 50%
[6]
  pest or weed control at 250 g/ha: 40%
[7]
  pest or weed control at 250 g/ha: 0%
[8]
  pest or weed control at 250 g/ha: 0%
[9]
  pest or weed control at 250 g/ha: 70%
[10]
  pest or weed control at 250 g/ha: 60%

## Cc1cc(Br)ccc1-c1nc(C2C(=O)C(C)(C)OC(C)(C)C2=O)c(C)s1 [Compound T58]
[1]
  pest or weed control at 250 g/ha: 0%
[2]
  pest or weed control at 250 g/ha: 20%
[3]
  pest or weed control at 250 g/ha: 0%
[4]
  pest or weed control at 250 g/ha: 50%
[5]
  pest or weed control at 250 g/ha: 100%
[6]
  pest or weed control at 250 g/ha: 90%
[7]
  pest or weed control at 250 g/ha: 0%
[8]
  pest or weed control at 250 g/ha: 80%
[9]
  pest or weed control at 250 g/ha: 100%
[10]
  pest or weed control at 250 g/ha: 100%
